The values that follow come from US5432200A, “Method for increasing urinary excretion of electrolytes” (priority 1993, dated 1995).

A short description of data set [1]: Physiological effects: urinary composition in two patients, five phases of study (Example 8, Table 1). The format is in vivo, human (patients). To be noted: for Urinary Ca / Urinary pH / Urinary Oxalate / Urinary K / Urinary Mg / Urinary Na / Urinary Citrate: mean of two patients, tablets/d: KCl 7, K citrate 10, Mg citrate 2.5, K-Mg citrate 7; for Urinary pH: placebo 6.26; for Urinary Oxalate: placebo 27; for Urinary K: placebo 31; for Urinary Mg: placebo 64; for Urinary Na: placebo 95; for Urinary Citrate: placebo 498.

The conditions of data set [2]: in vivo; cited from earlier work.
The subject of data set [3] is hypercalciuric nephrolithiasis. To be noted: cited from earlier work.
Data set [4] is described as follows: Bioavailability of potassium, magnesium and citrate in normal subjects: cumulative increment in urinary excretion after single oral dose (Example 7). To be noted: urine 24 hours.
Method: (§1) The study was performed with three normal subjects.
(§2) The subject underwent three phases of study. […] Urine was collected at frequent intervals for 24 hours after oral ingestion of each salt (at 8 a.m.).
(§3) Potassium bioavailability from potassium magnesium citrate was compared with that of potassium citrate. At each time period, the difference in urinary potassium following ingestion of potassium magnesium citrate (containing 49 meq potassium) or potassium citrate (containing 50 meq potassium) from that obtained at a corresponding time period following taking magnesium citrate (no potassium; therefore serving as control).
(§4) Magnesium bioavailability from potassium magnesium citrate was compared with that of magnesium citrate.
(§5) Citrate bioavailability from potassium magnesium citrate was compared with that of potassium citrate and magnesium citrate.
The conditions of data set [5]: cited from earlier work.
Another data set has as its system nephrolithiasis. To be noted: cited from earlier work.
For data set [6] the following is noted: human, in vivo, po.
Method: as §1, §2, §3, §4, §5
Where [7] appears, read: hypercalciuric patients with nephrolithiasis treated with thiazide.

Where a name gives a salt, the structure may show the parent alone.

For `[Cl-].[K+]` [potassium chloride], in data set [1], the “Urinary Ca” value amounted to 103 mg/day, the “Urinary pH” value is listed as 5.84, the “Urinary Oxalate” value was determined as 27 mg/day and the “Urinary K” value worked out at 90 meq/d. Further, in data set [1], the “Urinary Mg” value worked out at 73 mg/day, the “Urinary Na” value is on record as 81 meq/d and the “Urinary Citrate” value is 636 mg/day. Also, the side effects entry in data set [2] was “arrhythmia and diarrhea”.

In the case of `O=C(O)CC(O)(CC(=O)O)C(=O)O` [potassium citrate], in data set [1] (listed as Potassium Citrate), the “Urinary Ca” value was found to be 86 mg/day, the “Urinary pH” value is listed as 6.93, the “Urinary Oxalate” value was 27 mg/day and the “Urinary K” value amounted to 80 meq/d. Besides, in data set [1] (listed as Potassium Citrate), the “Urinary Mg” value came out at 69 mg/day, the “Urinary Na” value was 91 meq/d and the “Urinary Citrate” value was 821 mg/day. Moreover, in data set [3] (setting [7]), the citrate excretion result is reported as “augments citrate excretion” and the “effect on thiazide-induced hypokalemia” value is listed as “averts the development of hypokalemia”. The recurrent stone formation result in data set [3] (patients who have relapsed on thiazide therapy) was “prevents recurrent stone formation”. Also, in data set [3] (potassium citrate therapy), the “effect on thiazide-induced magnesium depletion” value is given as “does not avert thiazide-induced magnesium depletion”. Further, the “cumulative increment in urinary potassium (potassium bioavailability)” value in data set [4] (49 meq K (potassium magnesium citrate) vs 50 meq K (potassium citrate), magnesium citrate phase as control, FIG. 2) is on record as “equivalent between the two preparations”.

For the compound `O=C(O)CC(O)(CC(=O)O)C(=O)O` [magnesium citrate], in data set [1] (listed as Magnesium Citrate), the “Urinary Ca” value turned out to be 137 mg/day, the “Urinary pH” value is reported as 6.13, the “Urinary Oxalate” value came to 23 mg/day and the “Urinary K” value came out at 38 meq/d. In data set [1] (listed as Magnesium Citrate), the “Urinary Mg” value is 113 mg/day, the “Urinary Na” value is 82 meq/d and the “Urinary Citrate” value was 718 mg/day. In addition, the “magnesiuric and citraturic effect compared with magnesium oxide” value in data set [5] (magnesium salts provided in small divided doses) is “equivalent magnesiuric and citraturic effect as magnesium oxide”. The “absorbability compared with magnesium oxide” value in data set [5] (vs magnesium oxide) was “more soluble and absorbable than magnesium oxide”. For the same compound, the “cumulative increment in urinary magnesium (magnesium bioavailability or absorption)” value in data set [4] (24.5 meq Mg (potassium magnesium citrate) vs 25 meq Mg (magnesium citrate), potassium citrate phase as control, FIG. 3) is on record as “equivalent magnesium bioavailability between the two preparations”.

Consider `NS(=O)(=O)c1cc2c(cc1Cl)NCNS2(=O)=O` [thiazide], for which the “potassium and magnesium depletion” value in the data set with nephrolithiasis (thiazide therapy, by provoking renal loss of potassium and magnesium) is “may cause hypokalemia and magnesium depletion”. Further, the relapse rate with nephrolithiasis (use of thiazide alone) is given as 37.5-57.1%.

As for `O=C([O-])CC(O)(CC(=O)[O-])C(=O)[O-].O=C([O-])CC(O)(CC(=O)[O-])C(=O)[O-].[K+].[K+].[K+].[K+].[Mg+2]` [potassium magnesium citrate, tetrapotassium monomagnesium dicitrate], in data set [1], the “Urinary Ca” value worked out at 106 mg/day, the “Urinary pH” value turned out to be 6.94, the “Urinary Oxalate” value was 23 mg/day and the “Urinary K” value is 73 meq/d. Also, in data set [1], the “Urinary Mg” value stood at 116 mg/day, the “Urinary Na” value was 92 meq/d and the “Urinary Citrate” value was 968 mg/day. For the same compound, in data set [1] (vs magnesium citrate), the “urinary pH and citrate compared to magnesium citrate” value is “higher values for urinary pH and citrate”. Moreover, in data set [1] (vs placebo), the “urinary calcium and oxalate compared to placebo” value is “lower values for urinary calcium and oxalate”; the “urinary pH, magnesium, potassium and citrate compared to placebo” value was “higher values for urinary pH, magnesium, potassium and citrate”. In data set [1] (vs potassium chloride), the “urinary pH, magnesium and citrate compared to potassium chloride” value is “higher urinary pH, magnesium, and citrate”. The “citrate and magnesium excretion compared to potassium citrate” value in data set [1] (vs potassium citrate) is recorded as “greater citrate excretion as well as enhanced magnesium excretion”. Further, in data set [6], the “cumulative increment in urinary citrate (citrate bioavailability)” value is “much higher for potassium magnesium citrate than for the other two preparations”.
